Values of other authors as cited in patent publication US5883119A, “Triterpene derivatives with immunosuppressant activity” (Merck & Co., Inc., priority 1996, dated 1999).
pIC50: −log10 of the molar value.

Test system: Kv 1.3 channels (CHO cells transfected with Kv 1.3 channels)
Settings: stated in the method as property of the control blocker

margatoxin (TIINVKCTSPKQCLPPCKAQFGQSAGAKCMNGKCKCYPH; UniProt P40755 1-39, looked up)
pIC50: 10.00
